Reference: patent US6800285B2 (priority 2000, dated 2004)

Assays:
[1] = tested on: SJL/J mice infected with Theiler's murine encephalomyelitis virus; assay: Spinal cord demyelination quantitation (lesion load) in TMEV-infected mice; assay type: in vivo, mouse
Method: (§1) All mice used in the experiments were SJL/J mice (Jackson Laboratories, Bar Harbor, Me.). Six- to eight-week-old mice were intracerebrally injected with 2.0×10^6 pfu of Daniel's strain of Theiler's murine encephalomyelitis virus.
(§2) Areas of spinal cord demyelination (lesion load) and remyelination (73) were determined from multiple cross-sections of plastic-embedded spinal cords, using a camera lucida system and a computerized drawing tablet (39). Briefly, mice were sacrificed by overdose with sodium pentobarbital and perfused by intracardiac puncture with Trumps fixative, containing 4% paraformaldehyde and 1% glutaraldehyde. Spinal cords were removed, post-fixed in osmium textroxide, and sectioned into 1 mm blocks. Every third block (10-12 blocks per spinal cord; cervical to lumbar range) was embedded in Araldite plastic. The embedded tissues were cross-sectioned at 1 μm thickness, and the slides stained with 4% paraphenylenediamine to highlight the myelin sheaths.
Using a camera lucida attached to a Zeiss photomicroscope and a ZIDAS interactive digital analysis system, three parameters were measured from each slide: total white matter area, demyelinated lesion area, and remyelination area. Outline of these regions were traced and the areas calculated by the computerized digital analysis system. Demyelination was expressed as the total lesion area as a percentage of total white matter area. Remyelination was expressed as the total remyelination area as a percentage of the total demyelinated lesion area. The criterion for remyelination by oligodendrocytes was abnormally thin myelin sheaths. All remyelination data refers to oligodendrocyte-mediated remyelination. Occasionally, Schwann-cell mediated remyelination was observed, characterized by abnormally thick myelin sheaths and nuclei juxtaposed to the myelin sheath.
Virus was injected on Day 0.
Chronically infected mice (124-365 days post-infection) were treated subcutaneously for periods of 41-76 days. […] These mice were sacrificed after 65 days. […] The members of this group were sacrificed after 65-76 days. […] Sacrifice of these mice occurred after 41-65 days. The control group of mice received PBS. In all groups, spinal cord demyelination was measured after sacrifice.
Chronically infected mice (160-477 days post-infection) were treated by intraperitoneal injection with antibodies for periods of 36-76 days. One group of mice received Normal antibodies, administered in 10 injections of 0.05 mg each for a total of 0.5 mg over 42 days. […] PBS was administered to the control group of mice. Spinal cord white matter demyelinating pathology was measured post-sacrifice for all mice.
Each mouse received 5 weekly injections for total antibody doses of 0.5 or 1.5 mg (0.1-0.3 mg/injection). After sacrifice, spinal cord demyelination was measured.

UV-inactivated TMEV = assay: TMEV delayed type hypersensitivity (ear thickness); assay type: in vivo, mouse; conditions: immunized mice vs IFA control
Method: Ear thickness was measured prior to injection, and 24 and 48 hr after injection.
(§3) Serum titers of antibodies against TMEV and anti-TMEV DTH reactions were measured.

multiple sclerosis = conditions: daily subcutaneous injections, 20 mg/injection; cited from earlier work
[2] = Serum titres of glatiramer acetate IgG after glatiramer acetate immunization (ELISA); assay type: in vivo, mouse
Method: (§4) The antigen of interest was dissolved in 0.1 M carbonate buffer, pH 9.5, and applied at 1 μg per well in 96-well polystrene plates. Incubation was overnight at 4° C. Plates were then rinsed with PBST (phosphate buffered saline containing 0.05% Tween 20 detergent) and incubated for 1 hr in PBSM (phosphate buffered saline containing 5% defatted milk powder). Plates were rinsed with PBST, then incubated for 4 hr at room temperature with 50×PBS. Plates were rinsed with PBST, then incubated with biotinylated secondary antibodies that were raised in goat. The secondary antibodies, diluted in PBSM 1:50, were specific to mouse IgG or mouse IgM. Incubation was for 2 hr at room temperature. Plates were rinsed in PBST, then PBS. Streptavidin-alkaline phosphatase conjugate diluted in PBS was applied to the plates for 2 hr room temperature. Plates were rinsed with PBST, with a final rinse in water. The colored reaction product was produced by incubation with p-nitrophenyl phosphatase in 0.1 M carbonate buffer plus 1 mM magnesium chloride. The reaction was stopped with 0.5 N sodium hydroxide. Antibody isotyping was performed using a detection kit and purified isotype standards from Zymed Laboratories (San Francisco, Calif.). Extrapolation of the concentration of each isotype within the antibody samples was based on the sample dilution that produced the absorbence signal falling within the most linear portion of each standard isotype curve. Optical absorbency was measured at a wavelength of 405 nm.
Antibodies from normal SJL serum (SJL Ig) and commercial, pooled mouse serum (Pooled Ig) were also purifed by Protein A/G chromatography.
Mice were sacrificed on Day 65 post-immunization. […] The secondary antibody was biotinylated anti-mouse IgG.
Serum was isolated from these mice on Day 62. […] Serum was isolated from these mice on Day 41. […] Serum was isolated on Day 76. […] The secondary antibody was biotinylated anti-mouse IgG.
The final passive transfer was on Day 35. After 41 days of treatment, both groups of mice were sacrificed and serum titres of Copolymer IgG was measured by ELISA. The secondary antibody was biotinylated anti-mouse IgG.

[3] = tested on: experimental autoimmune encephalomyelitis (EAE); conditions: unlike MBP; cited from earlier work
TMEV [4] = assay: Serum anti-TMEV IgG titers after glatiramer acetate immunization; assay type: in vivo, Theiler's murine encephalomyelitis virus; conditions: four weeks after immunization, vs control mice
Method: as §4, with “An indirect ELISA was performed in which serum or a purified antibody was applied to plates that were pre-coated with glatiramer acetate or other protein antigens. The antigen” for “The antigen”, “sodium hydroxide. […] Optical absorbency” for “sodium hydroxide. Antibody isotyping was performed using a detection kit and purified isotype standards from Zymed Laboratories (San Francisco, Calif.). Extrapolation of the concentration of each isotype within the antibody samples was based on the sample dilution that produced the absorbence signal falling within the most linear portion of each standard isotype curve. Optical absorbency”
as §3

[5] = tested on: lymph node-derived lymphocytes from MBP84-102- and PLP179-191-immunized mice; assay: In vitro [3H]-thymidine proliferation of lymph node-derived lymphocytes from myelin peptide-immunized mice; assay type: cell-based, mouse; conditions: Experiment 6A; 53 hours culture
Method: Two mice were subcutaneously injected in the flanks with MBP 84-102 in complete Fruend's adjuvant (CFA). MBP84-102 was obtained by following the procedure of Hawes et al (24). A method similar to that of Tuohy et al. was employed to produce PLP179-191 (70). PLP179-191 in CFA was subcutaneously injected into the flanks of 1 mouse. […] In the last 13 hours of culture, 1 μCi of [^3H]-thymidine was added and its incorporation measured by scintillation counting of harvested cells.
Mice were subcutaneously injected in the flanks with MBP84-102 (2 mice) peptide in CFA. After 10 days, inguinal and peri-aortic lymph nodes were removed, dissociated, and grown for 74 hours in cultures in medium alone or with additional additives as shown in FIG. 17. In the last 12 hours of culture, 1 μCi of [^3H]-thymidine was added and its incorporation measured by scintillation counting of harvested cells.

[6] = tested on: SJL/J mice infected with Theiler's murine encephalomyelitis virus; assay: Spinal cord remyelination quantitation in TMEV-infected mice; assay type: in vivo, mouse
Method: as §1
as §2, with “The embedded tissues were cross-sectioned at 1 μm thickness, and the slides stained with 4% paraphenylenediamine to highlight the myelin sheaths.” left out
Using a camera lucida attached to a Zeiss photomicroscope and a ZIDAS interactive digital analysis system, three parameters were measured from each slide: total white matter area, demyelinated lesion area, and remyelination area. Outline of these regions were traced and the areas calculated by the computerized digital analysis system. Demyelination was expressed as the total lesion area as a percentage of total white matter area. Remyelination was expressed as the total remyelination area as a percentage of the total demyelinated lesion area. […]

TMEV [7] = assay: TMEV antigen expression (virus antigen-positive cells); assay type: in vivo, Theiler's murine encephalomyelitis virus; conditions: 6-9 wks after high-dose immunization

## L-glutamic acid polymer with L-alanine, L-lysine and L-tyrosine, acetate (salt) [glatiramer acetate]
[1]; early disease, 45 days post-infection, 0.1 mg/injection, 60 days of treatment
  effect on extent of demyelination: no statistically significant effect
[1]; late disease, high dose (5 mg glatiramer acetate/IFA, 1-2 injections), vs PBS
  effect on demyelinating lesions: expansion of the demyelinating lesions
[1]; late disease, high dose of glatiramer acetate
  white matter demyelinated (mean lesion load): 20%
[1]; late disease, low doses (0.1 mg/injection), alone or with adjuvant
  effect on extent of demyelination: did not alter the extent of demyelination
[1]; late disease, low-dose glatiramer acetate
  white matter demyelinated (mean lesion load): 10%
UV-inactivated TMEV
  anti-TMEV DTH reactions: reduced
Multiple sclerosis
  clinical effect in multiple sclerosis: reduce relapse rates, appearance of new lesions by magnetic resonance imaging (MRI), and progression of disability
[2]; chronically diseased mice immunized with 5 mg
  highest antibody titer reached: 1.2 mg/mL
[2]; chronically diseased mice, 0.1 vs 5 mg injections
  dose dependence of production of antibodies against glatiramer acetate: highly dose-dependent
[2]; non-infected immunized mice
  influence of dose (0.1-1.0 mg) and injection timing on glatiramer acetate IgG titres: did not significantly influence glatiramer acetate IgG titres
  time required to achieve high antibody titres: Approximately 3 weeks
[3]
  effect on EAE: inhibits rather than induces
TMEV [4]
  anti-TMEV titers (total IgG, IgG1, IgG2a): reduced
[5]
  lymphocyte proliferation: did not induce significant proliferation
[6]; Example 8, infected 6 months or longer, glatiramer acetate 0.1 mg/injection or antibodies 1.5 mg total
  remyelination of lesions (pathology): not more extensive than following the PBS treatment
[6]; late disease, s.c. treatment as Experiment 2A, alone or with IFA
  effect on extent of oligodendrocyte-mediated remyelination: did not affect the extent of oligodendrocyre-mediated remyelination
TMEV [7]
  virus expression (virus antigen-positive cells): tended to be higher
